The nature of the series: Thermo Scientific Acclaim RSLC 120 C18, 100 × 2.1 mm, 2.2 µm, 30 °C, 0.2 to 0.48 mL/min, estimated dead time 1.1 min; A: 90% water + 10% methanol + 5 mM ammonium acetate; B: methanol + 5 mM ammonium acetate; gradient (min/%B) 0.1/1 3/39 14/99.9 16/99.9. The following applies: stereoisomer not certain.

`COC(=O)NC(C(=O)NC(Cc1ccccc1)C(O)CN(Cc1ccc(-c2ccccn2)cc1)NC(=O)C(NC(=O)OC)C(C)(C)C)C(C)(C)C` (stereo not drawn): the LC retention time is 12.4 min. With `CNC(=O)Oc1cccc2c1OC(C)(C)C2O` (stereo not drawn), the LC retention time is 5.09 min. With `CCC1(c2ccccc2)C(=O)NC(=O)NC1=O`, the LC retention time is 6.1 min. Regarding `COc1ccc(-c2ccccc2)cc1NNC(=O)OC(C)C`, the LC retention time is 9.82 min. To `CC(C)(C)c1cc(C(C)(C)C)c(O)c(C(C)(C)C)c1` belongs 14.6 min; to `CCNP(=S)(OC)OC(C)=CC(=O)OC(C)C` (stereo not drawn), 9.75 min. As to `O=C1NC(=O)C2CC=CCC12` (stereo not drawn), the LC retention time is 4.36 min. In the case of `S=c1[nH]c2ccccc2s1`, the LC retention time was 6.58 min. In the case of `COCc1cnc(C2=NC(C)(C(C)C)C(=O)N2)c(C(=O)O)c1` (stereo not drawn), the LC retention time was 3.74 min. To `CCCCC1C(=O)N(c2ccccc2)N(c2ccccc2)C1=O` belongs 7.46 min; to `CSc1nnc(C(C)(C)C)c(=O)[nH]1`, 8.04 min. For `COC(=O)c1ccccc1CS(=O)(=O)NC(=O)Nc1nc(OC)cc(OC)n1`, the LC retention time is 7.66 min. To `Cc1occc1C(=O)Nc1ccccc1` belongs 7.54 min. Take `O=C(O)c1ccccc1S`: the LC retention time is 5.44 min. Take `CCc1cnc(C2=NC(C)(C(C)C)C(=O)N2)c(C(=O)O)c1` (stereo not drawn): the LC retention time was 4.32 min. Consider `CC(C)(C)NCC(O)COc1cccc2c1CC(O)C(O)C2` (stereo not drawn), for which the LC retention time is 5.12 min. Take `CCCCC(=O)N(Cc1ccc(-c2ccccc2-c2nn[nH]n2)cc1)C(C(=O)O)C(C)C` (stereo not drawn): the LC retention time was 8.17 min. The figure for `CC(C)(C)NCC(O)c1cc(O)cc(O)c1` (stereo not drawn) is 3.48 min; for `CCc1ccc(C(=O)NN(C(=O)c2cc(C)cc(C)c2)C(C)(C)C)cc1` it is 10.4 min; for `COc1ccc2cc(CCC(C)=O)ccc2c1` it is 8.54 min.

Consider `CCC(C)C1(CC)C(=O)NC(=O)NC1=O` (stereo not drawn), for which the LC retention time was 6.83 min. The figure for `CCNc1nc(NC(C)C)[nH]c(=O)n1` is 6 min; for `Cc1ccc(NS(=O)(=O)N(C)C)cc1` it is 7.23 min; for `CSC1=NC(C)(c2ccccc2)C(=O)N1Nc1ccccc1` (stereo not drawn) it is 9.18 min. The figure for `CCCCOc1cc(C(=O)NCCN(CC)CC)c2ccccc2n1` is 11.6 min; for `Cc1ccc2n[nH]nc2c1` it is 6.56 min; for `CNCC(O)c1ccc(O)cc1` (stereo not drawn) it is 2.26 min. Regarding `CC(C)(C#N)c1cc(Cn2cncn2)cc(C(C)(C)C#N)c1`, the LC retention time is 6.38 min. The figure for `CCCCCc1cc(O)c2c(c1)OC(C)(C)C1CCC(C(=O)O)=CC21` (stereo not drawn) is 12 min; for `CC(C)CC(C)Nc1ccc(Nc2ccccc2)cc1` (stereo not drawn) it is 11.8 min; for `CCCN(CCC)S(=O)(=O)c1ccc(C(=O)O)cc1` it is 6.46 min.

For `CCOC(=O)Nc1cccc(OC(=O)Nc2ccccc2)c1`, the LC retention time was 8.53 min. The figure for `CCOP(=S)(NC(C)CC)Oc1cc(C)ccc1[N+](=O)[O-]` (stereo not drawn) is 11.2 min; for `COc1cc(OC)nc(NC(=O)NS(=O)(=O)c2ncccc2C(=O)N(C)C)n1` it is 4.32 min; for `CNCC(O)c1cccc(O)c1` (stereo not drawn) it is 3.24 min. Consider `CCC(C)C(=O)OC1CC(O)C=C2C=CC(C)C(CCC(O)CC(O)CC(=O)O)C21` (stereo not drawn), for which the LC retention time was 8.27 min.

Consider `CCC(C)(CC)c1cc(NC(=O)c2c(OC)cccc2OC)on1`, for which the LC retention time was 9.39 min.

With `O=C(O)C(c1ccccc1)C1CCCCN1` (stereo not drawn), the LC retention time is 5.27 min. Turning to `O=C(c1ccc(OCCN2CCCCC2)cc1)c1c(-c2ccc(O)cc2)sc2cc(O)ccc12`, the LC retention time was 8.86 min. The figure for `CCCCc1ncc(C=C(Cc2cccs2)C(=O)O)n1Cc1ccc(C(=O)O)cc1` is 6.51 min.

`NS(=O)(=O)c1cc(C(=O)O)cc(N2CCCC2)c1Oc1ccccc1`: the LC retention time is 6.04 min.

Take `Oc1ccc(C=Cc2cc(O)cc(O)c2)cc1`: the LC retention time is 6.82 min. The figure for `O=C(O)Cc1cccc2ccccc12` is 5.7 min; for `CC1=CC(=O)CC2CCC3C4CCC(O)C4(C)CCC3C12C` (stereo not drawn) it is 13.8 min. Regarding `COC(=O)c1sccc1S(=O)(=O)NC(=O)Nc1nc(C)nc(OC)n1`, the LC retention time was 4.52 min. As to `CCCCCc1cc(O)c2c(c1)OC(C)(C)C1CCC(CO)=CC21` (stereo not drawn), the LC retention time is 12.3 min. As for `CC(=O)Nc1nnc(S(N)(=O)=O)s1`, the LC retention time was 3.24 min.

For `O=C(O)c1ccccc1O`, the LC retention time was 3.58 min. For the compound `COC=C(C(=O)O)c1ccccc1Oc1cc(Oc2ccccc2C#N)ncn1`, the LC retention time was 7.94 min. The figure for `CCC(=C(c1ccccc1)c1ccc(OCCN(C)C)cc1)c1ccc(OC)c(O)c1` is 11.5 min; for `CC12CCC3C(CCC4=C(O)C(=O)CCC43C)C1CCC2=O` (stereo not drawn) it is 6.61 min; for `CCCCc1c(C)nc(N(C)C)[nH]c1=O` it is 7.97 min.

For `O=c1[nH]c2c(c(=O)n1C1CCCCC1)CCC2`, the LC retention time is 8.23 min. As for `CCNc1nc(NCC)[nH]c(=O)n1`, the LC retention time was 5.56 min.

On to `COC1CCC(OC2CC(C3OC(C)(O)C(C)CC3C)OC2C2(C)CCC(C3(C)CCC4(CC(O)C(C)C(C(C)C5OC(O)(CC(=O)O)C(C)C(O)C5OC)O4)O3)O2)OC1C` (stereo not drawn), for which the LC retention time is 13.7 min.

On to `CCNCC(=O)Nc1c(C)cccc1C`, for which the LC retention time was 5.99 min. In the case of `CC12CCC3c4ccc(O)cc4CCC3C1CC(O)C2O` (stereo not drawn), the LC retention time is 7.82 min. For the compound `CC(C(=O)O)c1cccc(Oc2ccccc2)c1` (stereo not drawn), the LC retention time was 6.79 min. For the compound `CC12CCC3c4ccc(O)cc4CCC3C1CCC2O` (stereo not drawn), the LC retention time is 10.8 min. To `CC(=O)Nc1ccc(S(=O)(=O)Nc2ncccn2)cc1` belongs 3.76 min. As for `CCCCN1CCCCC1C(=O)Nc1c(C)cccc1C` (stereo not drawn), the LC retention time was 10.7 min. With `CNC(=O)ON=C(C)C(C)S(C)=O` (stereo not drawn), the LC retention time was 3.36 min. To `CC1CC(=O)CC2CCC3C4CCC(O)C4(C)CCC3C12C` (stereo not drawn) belongs 14.4 min; to `CC(C)c1ccc(NC(N)=O)cc1`, 8.81 min; to `CCCCc1oc2ccc(NS(C)(=O)=O)cc2c1C(=O)c1ccc(OCCCN(CCCC)CCCC)cc1`, 13.3 min. To `CCCCCCCCCCCCOS(=O)(=O)c1ccccc1` belongs 14.2 min; to `CCOC(=O)c1cn2nc(OP(=S)(OCC)OCC)cc2nc1C`, 11.4 min; to `CC(C)(C)c1n[nH]c(=O)n(N)c1=O`, 6.67 min. The figure for `Cc1ccc(C)c(OCCCC(C)(C)C(=O)O)c1` is 10.9 min; for `CC(C)(C)CC(C)(C)c1ccc(O)cc1` it is 12.3 min; for `CC(=O)CC(c1ccccc1)c1c(O)c2ccccc2oc1=O` (stereo not drawn) it is 6.56 min.

Regarding `NS(=O)(=O)Cc1noc2ccccc12`, the LC retention time is 5.17 min.

On to `CC1CC2(C)C(CCC3C4CCC(O)C4(C)CCC32)CC1=O` (stereo not drawn), for which the LC retention time was 14.4 min. The figure for `Nc1ncnc2c1ncn2C1OC(CO)C(O)C1O` (stereo not drawn) is 3.84 min; for `CC12CCC3C(CCC4CC(OC5OC(C(=O)O)C(O)C(O)C5O)CCC43C)C1CCC2=O` (stereo not drawn) it is 10.2 min; for `CC(C)Nc1nc(NC(C)C)[nH]c(=O)n1` it is 8.19 min. The figure for `COc1ccc(C(O)(c2cncnc2)C2CC2)cc1` (stereo not drawn) is 7.12 min; for `CNC(=C[N+](=O)[O-])NCCSCc1ccc(C[N+](C)(C)[O-])o1` it is 3.98 min; for `Cc1cccc(C)c1N(Cn1cccn1)C(=O)CS(=O)(=O)O` it is 6.02 min. The figure for `CC(C)C1(C)N=C(c2nc3ccccc3cc2C(=O)O)NC1=O` (stereo not drawn) is 4.85 min; for `COC1CC(OC2C(C)OC(OC3C(C)=CCC4CC(CC5(C=CC(C)C(C(C)C)O5)O4)OC(=O)C4C=C(C)C(O)C5OCC(=CC=CC3C)C45O)CC2OC)OC(C)C1O` (stereo not drawn) it is 13.4 min; for `COC(=O)c1ccccc1S(=O)(=O)NC(=O)Nc1nc(C)cc(C)n1` it is 5.03 min. Consider `CC12CCC(=O)C=C1CCC1C2C(O)CC2(C)C(C(=O)CO)CCC12` (stereo not drawn), for which the LC retention time is 9.91 min. The figure for `CCc1cccc(CC)c1N(COC)C(=O)C(=O)O` is 7.69 min; for `CC1=CC(=O)NS(=O)(=O)O1` it is 2.34 min; for `CCCCNc1cc(C(=O)O)cc(S(N)(=O)=O)c1Oc1ccccc1` it is 6.73 min. The figure for `COC(=O)c1ccc(C)cc1C1=NC(C)(C(C)C)C(=O)N1` (stereo not drawn) is 7.15 min; for `CNC(=O)Oc1cccc2ccccc12` it is 7.42 min. The figure for `CC1=C(C(=O)Nc2ccccc2)SCCO1` is 7.42 min; for `Cc1ccc(S(N)(=O)=O)cc1` it is 4.79 min. `CC1(C)OCC2OC3(C(=O)O)OC(C)(C)OC3C2O1` (stereo not drawn): the LC retention time is 4.3 min.

Take `CCC(CC)OC1C=C(C(=O)O)CC(N)C1NC(C)=O` (stereo not drawn): the LC retention time was 4.92 min. In the case of `O=C1CC(C(=O)O)CC(=O)C1=C(O)C1CC1` (stereo not drawn), the LC retention time is 1.49 min. As for `COCCN(C(=O)CS(=O)(=O)O)c1c(C)cccc1C`, the LC retention time was 6.16 min. To `S=c1nc[nH]c2nc[nH]c12` belongs 2.62 min; to `CC1(c2ccc(Oc3ccccc3)cc2)OC(=O)N(Nc2ccccc2)C1=O` (stereo not drawn), 11 min; to `CN(C)S(=O)(=O)Nc1ccccc1`, 7.14 min. The figure for `CCCCc1c(C)nc(NCC)[nH]c1=O` is 8.39 min.
